Measured values: ChEMBL document CHEMBL3832552, “DailyMed|setid=e3780ba1-46ef-410c-b2fc-f1ffbfb598f3 | SULAR - nisoldipine tablet, film coated, extended release|Physicians Total Care, Inc”

Assay: Evaluation of pharmacokinetic parameters for Nisoldipine following oral administration of 17 to 51 mg of Nisoldipine extended release tablets.
Assay type: ADME, organism-based
Settings: human, in vivo, dose 17-51 mg, dosed compound id 7, dosed compound name NISOLDIPINE, tissue Plasma

- Tmax: 9.2 h
- bioavailability: 5%
- half-life (read-out: t1/2-elimination (converted)): 13.7 h
SMILES: COC(=O)C1=C(C)NC(C)=C(C(=O)OCC(C)C)C1c1ccccc1[N+](=O)[O-] (stereo not drawn) [NISOLDIPINE]
